Literature values, collected in paper PMC11007962, “First-in-human study of GFH018, a small molecule inhibitor of transforming growth factor-β receptor I inhibitor, in patients with advanced solid tumors” (BMC Cancer, 2024).

How the values were obtained:
[1] = set-up: method as in PMID 25488804, PMID 26309397; settings: consecutive regimens; cited from earlier work
[2] = tested on: advanced HPV-associated malignancies; set-up: method as in PMID 33323462; settings: patients with advanced HPV-associated malignancies; comparators are historical data; cited from earlier work

Row | Molecule | cardiac findings in toxicology studies [1] | ORR [2]
1 | Cc1cccc(-c2nn3c(c2-c2ccnc4ccc(C(N)=O)cc24)CCC3)n1 [galunsertib, reference compound] | cardiac lesions occur | –
2 | pembrolizumab: historical comparator in HPV-associated malignancies | – | 24%
3 | nivolumab: historical comparator in HPV-associated malignancies | – | 24%
4 | bintrafusp alfa: bifunctional fusion protein targeting TGF-β and PD-L1 (antibody, chains of the INN, looked up, V domains shown) VH: EVQLLESGGGLVQPGGSLRLSCAASGFTFSSYIMMWVRQAPGKGLEWVSSIYPSGGITFYADTVKGRFTISRDNSKNTLYLQMNSLRAEDTAVYYCARIKLGTVTTVDYWGQGTLVTVSS VL: QSALTQPASVSGSPGQSITISCTGTSSDVGGYNYVSWYQQHPGKAPKLMIYDVSNRPSGVSNRFSGSKSGNTASLTISGLQAEDEADYYCSSYTSSSTRVFGTGTKVTVL | – | 35.6%
